In PubChem BioAssay (NCI) one finds TGI and GI50 data, which are given here for 20 compounds.

Test systems include CCRF-CEM leukemia; DU-145 prostate; HCT-116 colon; HCT-15 colon; HOP-62 NSCLC; IGROV1 ovarian; NCI-H226 lung; SK-MEL-2 melanoma; T-47D breast; U251 CNS.
Holding throughout (assay): inhibition of tumour cell growth, NCI panel, 48 h

Values joined by “and” are separate entries in the source; they are usually repeats but may differ in a detail not shown here. Equal values may be shown once.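 Where inhibition never reached the appropriate level, the endpoint shown equals the highest concentration tested. Otherwise, values were interpolated linearly from a five-concentration, 48-hour dose response in 96-well plates. GI50: concentration for 50% inhibition of growth. TGI marks complete inhibition of growth.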

For the compound `CCOC(=O)c1cc(C2(O)CCN(Cc3ccccc3)C2=O)c(-c2cc(C)no2)[nH]1` (stereo unspecified), the TGI in the assay on CCRF-CEM leukemia, in the assay with DU-145 prostate, in the assay on HCT-116 colon, with HCT-15 colon, in the assay with HOP-62 NSCLC and in the assay on IGROV1 ovarian was greater than 100 µM in each case. The TGI was greater than 100 µM with NCI-H226 lung, greater than 100 µM in the assay with SK-MEL-2 melanoma, 74.8 µM in the assay on T-47D breast and greater than 100 µM with U251 CNS.

Regarding `CCOC(=O)c1sc2nc(SC)nc3c2c1N=CN3c1ccc(Br)cc1`, the TGI with CCRF-CEM leukemia, in the assay with DU-145 prostate, in the assay on HCT-116 colon, in the assay on HCT-15 colon, in the assay with HOP-62 NSCLC and with IGROV1 ovarian was greater than 100 µM in each case. Also, the TGI in the assay on NCI-H226 lung, in the assay on SK-MEL-2 melanoma, in the assay on T-47D breast and with U251 CNS was greater than 100 µM each time.

As for `CCOC(=O)CCC(NC(=O)c1ccc(OCc2nc3cc(C(F)(F)F)ccc3nc2-c2ccccc2)cc1)C(=O)OCC` (stereo unspecified), the TGI with CCRF-CEM leukemia, in the assay with DU-145 prostate, with HCT-116 colon, in the assay with HCT-15 colon, in the assay with IGROV1 ovarian and in the assay on NCI-H226 lung was greater than 100 µM in each case. The TGI was 54.1 µM in the assay on SK-MEL-2 melanoma, greater than 100 µM in the assay with T-47D breast and greater than 100 µM in the assay on U251 CNS.

Consider `CC[C@@H]1CC[C@@H]2[C@H](CC[C@]3(C)[C@@H](O)CC[C@@H]23)[C@H]1C(=O)O`, for which the TGI in the assay on CCRF-CEM leukemia, in the assay with DU-145 prostate, with HCT-116 colon, in the assay on HCT-15 colon, in the assay on HOP-62 NSCLC and in the assay with IGROV1 ovarian was greater than 100 µM each time. Also, the TGI in the assay on NCI-H226 lung, in the assay on SK-MEL-2 melanoma, in the assay with T-47D breast and in the assay with U251 CNS was greater than 100 µM throughout.

Turning to `Cc1sc2nc3n(c(=O)c2c1C)N=CN(c1ccccc1)C3`, the TGI in the assay with CCRF-CEM leukemia was greater than 100 µM; with DU-145 prostate it was greater than 100 µM; in the assay on HCT-116 colon, greater than 100 µM; with HCT-15 colon it was greater than 100 µM; in the assay on HOP-62 NSCLC, 65.3 µM; with IGROV1 ovarian, greater than 100 µM. Further, the TGI in the assay on NCI-H226 lung, in the assay on SK-MEL-2 melanoma, in the assay on T-47D breast and in the assay with U251 CNS was greater than 100 µM each time.

With `O=c1c2ccccc2[nH]c(=S)n1-c1ccc(N=Nc2cccc3c(O)cccc23)cc1`, the TGI with CCRF-CEM leukemia, with DU-145 prostate, with HCT-116 colon, in the assay on HCT-15 colon, with HOP-62 NSCLC and in the assay with IGROV1 ovarian was greater than 100 µM in each case. Further, the TGI with NCI-H226 lung, in the assay with SK-MEL-2 melanoma, with T-47D breast and in the assay with U251 CNS was greater than 100 µM each time.

In the case of `c1cc2nnc1SCCSCCSc1ccc(nn1)SCCSCCS2`, the TGI in the assay with CCRF-CEM leukemia, with DU-145 prostate, with HCT-116 colon, in the assay with HCT-15 colon, in the assay with HOP-62 NSCLC and with IGROV1 ovarian was greater than 100 µM each time. The TGI in the assay with NCI-H226 lung, with SK-MEL-2 melanoma, in the assay with T-47D breast and in the assay on U251 CNS was greater than 100 µM each time.

`CCCCc1c(O)nc(Nc2nc3ccccc3[nH]2)[nH]c1=O`: the TGI in the assay on CCRF-CEM leukemia, in the assay with DU-145 prostate, in the assay with HCT-116 colon, in the assay on HCT-15 colon, in the assay on HOP-62 NSCLC and in the assay with IGROV1 ovarian was greater than 100 µM in each case. Besides, the TGI in the assay with NCI-H226 lung, in the assay on SK-MEL-2 melanoma, with T-47D breast and in the assay with U251 CNS was greater than 100 µM in each case.

For `Cc1cccc(N2C(=O)C3ON(C(C(N)=O)c4ccccc4)C(c4c5ccccc5c(Cl)c5ccccc45)C3C2=O)c1C` (stereo unspecified), the TGI in the assay on CCRF-CEM leukemia was greater than 50 µM; with DU-145 prostate, 43.2 µM; in the assay on HCT-116 colon, 3.84 µM; with HCT-15 colon, 22 µM; in the assay with HOP-62 NSCLC, 24.4 µM; in the assay with IGROV1 ovarian, 32.4 µM. For the same compound, the TGI in the assay on NCI-H226 lung was determined as 14.9 µM; in the assay with SK-MEL-2 melanoma it was 20 µM; in the assay on T-47D breast, 32.1 µM; in the assay with U251 CNS it was 15.6 µM.

`Oc1ccccc1C(c1cc2c(cc1O)OCO2)N1CCOCC1` (stereo unspecified): the TGI was 5.26 µM with CCRF-CEM leukemia; greater than 100 µM in the assay with DU-145 prostate; 31.5 µM in the assay on HCT-116 colon; 36.8 µM with HCT-15 colon; greater than 100 µM in the assay on HOP-62 NSCLC; 35.7 µM with IGROV1 ovarian. Besides, the TGI with NCI-H226 lung is greater than 100 µM; in the assay with SK-MEL-2 melanoma, 36 µM; in the assay with T-47D breast, 33.8 µM; in the assay on U251 CNS, 30.2 µM.

Take `Cc1ccc(N=Nc2c3c(c(O)c4ccccc24)CCC(C)(C)O3)cc1`: the TGI in the assay with CCRF-CEM leukemia was 39.6 µM; with DU-145 prostate it was 26 µM; in the assay on HCT-116 colon, 49.2 µM; in the assay with HCT-15 colon, 67.3 µM; in the assay on HOP-62 NSCLC, 36.6 µM; with IGROV1 ovarian, greater than 100 µM. The TGI was greater than 100 µM in the assay with NCI-H226 lung, 36.7 µM in the assay with SK-MEL-2 melanoma, 60.3 µM in the assay on T-47D breast and greater than 100 µM in the assay with U251 CNS.

For `CCOC(=O)c1c(NC(=O)c2ccccc2)sc2c1CCCC2`, the TGI in the assay on CCRF-CEM leukemia, with DU-145 prostate, in the assay on HCT-116 colon, with HCT-15 colon, in the assay on IGROV1 ovarian and in the assay on NCI-H226 lung was greater than 100 µM in each case. For the same compound, the TGI in the assay with SK-MEL-2 melanoma, in the assay on T-47D breast and in the assay with U251 CNS was greater than 100 µM in each case.

For `Cc1cn(C2CC(N)C(CN)O2)c(=O)[nH]c1=O` (stereo unspecified), the TGI with CCRF-CEM leukemia, with DU-145 prostate, with HCT-116 colon, with HCT-15 colon, with HOP-62 NSCLC and in the assay with IGROV1 ovarian was greater than 100 µM each time. Further, the TGI with NCI-H226 lung, with SK-MEL-2 melanoma, with T-47D breast and in the assay with U251 CNS was greater than 100 µM each time.

For `Cc1ccc(-c2cc(N)n(-c3nc4c([nH]3)c(=O)n(C)c(=O)n4C)n2)cc1`, the TGI in the assay on CCRF-CEM leukemia is greater than 100 µM; with DU-145 prostate it was 20.4 µM; in the assay with HCT-116 colon, 15.9 µM; with HCT-15 colon, 18.6 µM; with HOP-62 NSCLC it was 16.4 µM; in the assay with IGROV1 ovarian, 18.3 µM. Moreover, the TGI is 22.8 µM with NCI-H226 lung, 30.8 µM in the assay with SK-MEL-2 melanoma, 23.6 µM in the assay with T-47D breast and greater than 100 µM with U251 CNS.

Turning to `CCOC(=O)c1cc2c([N+](=O)[O-])c(NC(C)=O)ccc2s1`, the TGI in the assay on CCRF-CEM leukemia, in the assay with DU-145 prostate, with HCT-116 colon, in the assay with HCT-15 colon, with HOP-62 NSCLC and with IGROV1 ovarian was greater than 100 µM throughout. The TGI in the assay on NCI-H226 lung was 54.8 µM; with SK-MEL-2 melanoma, greater than 100 µM; with T-47D breast, 61.2 µM; in the assay on U251 CNS, greater than 100 µM.

Turning to `CCCCCCCCCC[C@@H](O)[C@H]1CC[C@H]([C@H]2CC[C@H]([C@H](O)CCCCCCCCCC[C@@H]3CC(CC(C)=O)C(=O)O3)O2)O1` (stereo partly specified), the GI50 in the assay on CCRF-CEM leukemia was 1.74 µM; with HCT-116 colon it was 1.32 µM; in the assay with HCT-15 colon, 7.21 µM; in the assay on NCI-H226 lung it was 1.43 µM; in the assay on SK-MEL-2 melanoma, 4.06 µM; with U251 CNS it was 7.12 µM. In addition, the TGI in the assay on CCRF-CEM leukemia is greater than 50 µM; in the assay on DU-145 prostate, greater than 50 µM; with HCT-116 colon it was greater than 37.2 µM; in the assay on HCT-15 colon, greater than 50 µM; with HOP-62 NSCLC it was greater than 50 µM; in the assay on IGROV1 ovarian, greater than 50 µM. Besides, the TGI with NCI-H226 lung is 6.56 µM and > 50 µM; in the assay on SK-MEL-2 melanoma, greater than 50 µM; in the assay on T-47D breast, greater than 50 µM; in the assay with U251 CNS, greater than 50 µM.

As for `COc1ccc2c(c1)c1c(n2CCN2CCOCC2)-c2ccccc2CC1`, the TGI in the assay on CCRF-CEM leukemia was 69.5 µM; with DU-145 prostate it was greater than 100 µM; in the assay with HCT-116 colon it was greater than 100 µM; in the assay with HCT-15 colon it was greater than 100 µM; in the assay with HOP-62 NSCLC it was greater than 100 µM; in the assay on IGROV1 ovarian, greater than 100 µM. Also, the TGI with NCI-H226 lung is 48.9 µM; in the assay on SK-MEL-2 melanoma it was 82.5 µM; with T-47D breast, greater than 100 µM; in the assay with U251 CNS, greater than 100 µM.

`c1sc(NC2=NCCO2)c2c1CCCC2`: the TGI in the assay on CCRF-CEM leukemia, in the assay with DU-145 prostate, in the assay on HCT-116 colon, in the assay with HCT-15 colon, in the assay on IGROV1 ovarian and with NCI-H226 lung was greater than 100 µM throughout. Moreover, the TGI in the assay on SK-MEL-2 melanoma, with T-47D breast and in the assay on U251 CNS was greater than 100 µM each time.

Regarding `Cc1ccc2c(c1C)CC1(Cc3c(ccc4c3CCC4)C1=O)C2=O` (stereo unspecified), the TGI with CCRF-CEM leukemia, with DU-145 prostate, in the assay with HCT-116 colon, in the assay on HCT-15 colon, with IGROV1 ovarian and in the assay with NCI-H226 lung was greater than 100 µM throughout. Moreover, the TGI with SK-MEL-2 melanoma, in the assay on T-47D breast and with U251 CNS was greater than 100 µM in each case.

For the compound `O=C1CC(C(O)CO)CC(=O)N1` (stereo unspecified), the TGI with CCRF-CEM leukemia, with DU-145 prostate, in the assay on HCT-116 colon, with HCT-15 colon, in the assay on HOP-62 NSCLC and in the assay on IGROV1 ovarian was greater than 100 µM each time. The TGI in the assay with NCI-H226 lung, with T-47D breast and in the assay with U251 CNS was greater than 100 µM each time.
